Results from patent US20110124703A1, “MOLECULES COMPRISING A BIS(HETEROARYL)MALEIMIDE BACKBONE, AND USE THEREOF IN THE INHIBITION OF DDE/DDD ENZYMES” (priority 2008, published 2011).
Like-named read-outs stand apart in the source and are kept apart here.

Assays:
MOS1-ITR complexes = target: T1, MOS1-ITR complexes (Drosophila mauritiana, UniProt Q7JQ07); test: Electrophoretic mobility shift test (EMSA), assembly of MOS1-ITR complexes; assay type: binding; design: key to Assembly of complexes: +: complexes observed; −: absence of complexes; +/: traces of SEC1; settings: for IC50: MOS1-ITR bond
T1 construct: made in house
T1 sequence (Q7JQ07 whole entry, one chain of several): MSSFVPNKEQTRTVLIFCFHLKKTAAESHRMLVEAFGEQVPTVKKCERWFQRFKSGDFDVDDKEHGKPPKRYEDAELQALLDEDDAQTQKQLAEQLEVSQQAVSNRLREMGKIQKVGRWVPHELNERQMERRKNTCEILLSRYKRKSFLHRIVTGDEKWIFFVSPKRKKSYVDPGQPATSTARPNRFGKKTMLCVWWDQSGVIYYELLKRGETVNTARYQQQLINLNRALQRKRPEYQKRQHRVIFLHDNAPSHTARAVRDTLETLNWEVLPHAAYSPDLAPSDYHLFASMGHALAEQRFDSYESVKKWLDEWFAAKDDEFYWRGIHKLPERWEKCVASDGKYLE
Protocol: The ITR30 was prepared and labeled as described above (8) with certain minor modifications: after labelling, the DNA was purified further on a native polyacrylamide gel. The binding reactions were carried out in 50 mM of NaCl, 0.5 mM of DTT, 10 mM of Tris (pH 9), 5% of glycerol and 100 ng of BSA. Each 20 μl reaction contained 0.2 pmol of ITR30 labelled with ^32P, […] of purified MBP-MOS1, 5 mM of EDTA, and 1 μl of the test compound (final concentration 400 μM) or DMSO. The mixtures were incubated at 30° C. for two hours. The complexes were separated using discontinuous native polyacrylamide gels with 4% to 6% of TBE 0.25× (acrylamide/bisacrylamide 30:0.93) containing 5% of glycerol. The gels were subjected to 200 V for 3 hours then autoradiographed.
The capacity of the ten molecules to inhibit the appearance of complexes formed in vitro between MOS1 and ITR 3′ (8) was tested using the gel mobility shift technique (EMSA). MOS1-ITR complexes were formed with a radiolabelled ITR 3′ (ITR30) in the presence of a 400 μM concentration of molecule. This concentration was at least 2.5 times higher than the highest IC50 value measured for the ten compounds.

[1] = target: T2, MOS1 transposase (MBP-MOS1) (Drosophila mauritiana, UniProt Q7JQ07); test: In vitro transposition test; assay type: biochemical; settings: 80 μM compound; for Transposition frequencies: mean of at least five experiments; for Inhibition factors: ratio of transposition frequency with DMSO to that with compound
T2 construct: made in house
T2 sequence (Q7JQ07 whole entry): as the sequence (Q7JQ07 whole entry, one chain of several) above
Protocol: The in vitro transposition reactions were carried out using pBC-3T3 both as the donor DNA and as the target, as was carried out previously for transposition tests in bacteria (16). The transposition reaction mixtures contained 10 mM of Tris-HCl (pH 9), 50 mM of NaCl, 0.5 mM of dithiothreitol, 20 mM of MgCl2, 0.5 mM of EDTA, 100 ng of BSA, 80 nM of MBP-MOS1 and 600 ng of supercoiled pBC-3T3 in a volume of 20 μl. Inhibitors (final concentration 80 μM) or DMSO were added to the reaction mixtures before the transposase. The reactions were carried out freely for 30 min at 30° C. then 10 μl of the stop solution (0.4% SDS, 0.4 μg/μl proteinase K) were added and the reaction mixtures were incubated at 37° C. for an additional 30 min, then at 65° C. for 10 min. The products were extracted with phenol-chloroform and precipitated in ethanol with 1 μg of yeast tRNA using conventional techniques. 10% of the reaction mixture was co-transformed with 0.01 ng of pBS-SK(−), used as a positive control for transformation (Stratagene), in 45 μl of electrocompetent Escherichia coli JM109 cells (2 mm cell, 1.5 kV in a MicroPulser™ from BioRad). The bacteria were cultivated at 37° C. for 1 hour in SOC medium. Appropriate dilutions of each reaction were spread on LB-ampicillin gelose (100 μg/ml) to evaluate the transformation efficacy and on LB-tetracyclin gelose (12.5 μg/ml) and LB-chloramphenicol gelose (80 μg/ml) in order to evaluate the frequency of transposition. The frequency of transposition is the number of Tet® colonies divided by the number of Chloram® colonies. The transformation efficacy was monitored from the number of Amp® colonies. The effect of the various compounds was expressed by calculating an inhibition factor (IF) such that IF=the frequency of transposition of the control (in DMSO) divided by the frequency of transposition obtained with the compound.
The transposition test was carried out using a purified MOS1 protein fused with the MBP and the pBC-3T3 plasmid carrying a pseudo-Mos1 transposon. In this test, pBC-3T3 was used as the pseudo-Mos1 donor, or as the target for integration of the transposon (16). […] The concentration of drugs used for the initial screening was 80 μM.

HIV-1 integrase = target: T3, HIV-1 integrase (Human immunodeficiency virus type 1 group M subtype B, UniProt P04585); test: 3′ maturation and HIV-1 strand transfer tests; assay type: biochemical
T3 construct: made in house
Protocol: HIV-1 integrase was purified as described in (32). 200 nM of HIV-1 integrase was incubated in the presence of 6.25 nM of radiolabelled oligonucleotide duplex imitating the end of the LTR U5 in a buffer containing 20 mM of HEPES (pH 7.5), 10 mM of NaCl, 4 mM of DTT, 7.5 mM of MgCl2, 10% of DMSO and various concentrations of drugs. The reaction was carried out for 2 hours at 37° C. and the products were separated on an 18% acrylamide urea gel. The gel was scanned using a phosphorimager and analyzed using Image Quant (Molecular Dynamics) software. Each experiment was carried out in duplicate.
To verify whether the novel group of inhibitors (compounds 1 to 4) is also susceptible of blocking HIV-1 integrase, the activity of compound 4 was tested against the 3′ maturation and strand transfer activities of HIV-1 integrase. The percentage inhibition measured in the two independent experiments were traced as a function of the concentration of compound 4 (FIG. 10). […] It was also an excellent inhibitor of HIV-1 integrase. […] In consequence, MOS1 can be considered as a novel substitute for the identification of inhibitors of HIV-1 integrase.

[2] = target: T2, MOS1 transposase (MBP-MOS1); test: In vitro excision test; assay type: biochemical
Protocol: These tests were carried out under the same conditions as for the in vitro transposition tests, with the exception of the fact that the incubation was carried out at 37° C. instead of 30° C. In order to determine the IC50, a range of concentrations of the compound from 1000 to 0.8 μM was used as indicated in the text. After incubation, the reaction was interrupted by adding 2 μl of 10× loading buffer and the products were loaded directly onto a 0.8% TAE 1×-agarose gel containing ethidium bromide. The quantity of backbone liberated was evaluated using the GeneSnap system (SynGene). The percentage inhibition of excision was plotted as a function of the concentration of the compound. The experimental data were adjusted on a sigmoid dose-response curve using Prism software. Each experiment was repeated at least two times.
For a better characterization of the inhibiting activity of these ten compounds and their action mechanisms on the transposition of Mos1, the capacity of the chemical compounds to inhibit excision of the transposon was tested in vitro, using the pBC-3T3 transposon as a donor plasmid. MOS1 triggers excision of the transposon from a donor plasmid, generating two linear DNA fragments, the transposon (1.2 kb) and the plasmid backbone (3.4 kb). After excision, the transposon can be re-inserted in a target. The excision activity of the drug was measured by quantifying the plasmid backbone as it is a final product in the reaction. In the absence of a drug, the transposase released the transposon from the donor plasmid.
In order to determine the concentration of drug necessary to inhibit 50% of the reaction (IC50), the inhibition percentages measured from two independent experiments were plotted as a function of the concentration of drug (FIG. 3b). Similar experiments were carried out with the nine other chemical compounds and the corresponding IC50 values are shown in Table III.

SMILES | Assembly of complexes (MOS1-ITR complexes; 400 μM compound) | MOS1-ITR complexes in the presence of compound (MOS1-ITR complexes; 400 μM compound) | IC50 (MOS1-ITR complexes) | Transposition frequencies [1] | Inhibition factors [1] | times more active against strand transfer activity than 3′ maturation (HIV-1 integrase) | IC50 (HIV-1 integrase; read-out: IC50 3′ maturation) | IC50 (HIV-1 integrase; read-out: IC50 strand transfer activity) | inhibition of MOS1-ITR complexes (MOS1-ITR complexes; 400 μM compound) | IC50 [2] | excision of the transposon ([2]; highest concentration of the drug (1 mM))
O=C(O)c1ccc(C2=C(c3ccc(C(=O)O)o3)C(=O)N(c3ccc(O)cc3)C2=O)o1 [Compound 2] | − | completely destabilized | 15 µM | 1.2 × 10^−6 | 33 |  |  |  |  |  | 
COc1cccc(OCCOc2cccc(CC3SC(=S)NC3=O)c2)c1 (stereo not drawn) [Compound 8, reference compound] | − | completely destabilized |  | 5.04 × 10^−6 | 79 |  |  |  |  |  | 
O=C/C=C/c1ccc(C2=C(c3ccc(/C=C/C=O)o3)C(=O)N(Cc3ccccc3)C2=O)o1 [Compound 4] | − | completely destabilized | 12 µM | 5.37 × 10^−6 | 75 | 10 times | 70 µM | 7 µM |  |  | 
COc1ccc(C(c2c(O)c3ccccc3oc2=O)c2c(O)c3ccccc3oc2=O)cc1CSc1ccccn1 [Compound 7, reference compound] | − | completely destabilized |  | 4.85 × 10^−6 | 82.5 |  |  |  |  |  | 
O=C(Nc1ccccc1C(=O)O)c1cccc(NC(=O)C(c2ccccc2)c2ccccc2)c1 [Compound 9, reference compound] |  |  |  | 1.64 × 10^−5 | 25 |  |  |  | 90% | 150 µM | completely suppressed
CCOC(=O)C(Cc1ccccc1)N1C(=O)C(c2ccc(C(=O)O)o2)=C(c2ccc(C(=O)O)o2)C1=O (stereo not drawn) [Compound 3] | − | completely destabilized | 30 µM | 4.01 × 10^−6 | 100 |  |  |  |  |  | 
O=C(O)C(Cc1ccccc1)N1C(=O)C(=CC=Cc2ccccc2)SC1=S (stereo not drawn) [Compound 10, reference compound] | − | completely destabilized |  | 2.76 × 10^−6 | 145 |  |  |  |  | 35 µM | 
